Test results taken from ChEMBL document CHEMBL1141641, “SAR studies of capsazepinoid bronchodilators. Part 1: The importance of the catechol moiety and aspects of the B-ring structure” (Bioorg Med Chem, 2008).

Organism: Homo sapiens
Assay: Bronchodilation activity against leukotriene D4-induced constriction in human lung small airways assessed as remaining contraction at 10 uM after 1.5 hrs relative to control
Type: functional

First: CC1Cc2cc(O)c(O)cc2CN1C(=S)NCCc1ccc(Cl)cc1 (centres undefined)
Second: Oc1cc2c(cc1O)CN(C(=S)NCCc1ccc(Cl)cc1)C2
The Remaining contraction of the first is higher: 70% for the first, 56% for the second.

Going from `Oc1ccc2c(c1)CCN(C(=S)NCCc1ccc(Cl)cc1)C2` to `Oc1ccc2c(c1)CN(C(=S)NCCc1ccc(Cl)cc1)CC2`, the Remaining contraction rises from 52% to 75%.

First: Oc1cc2c(cc1O)CCN(C(=S)NCCc1ccc(Cl)cc1)CC2
Second: Oc1cc2c(cc1O)CN(C(=S)NCCc1ccc(Cl)cc1)CC2
The Remaining contraction of the first is higher: 54% for the first, 36% for the second.

Going from `Oc1ccc(CNC(=S)NCCc2ccc(Cl)cc2)cc1O` to `Oc1ccc(CCNC(=S)NCCc2ccc(Cl)cc2)cc1O`, the Remaining contraction rises from 69% to 72%.

Going from `Oc1cccc2c1CCN(C(=S)NCCc1ccc(Cl)cc1)C2` to `Oc1cccc2c1CN(C(=S)NCCc1ccc(Cl)cc1)CC2`, the Remaining contraction rises from 48% to 73%.

Compared with `CC1c2cc(O)c(O)cc2CCN1C(=S)NCCc1ccc(Cl)cc1` (centres undefined), `Oc1cc2c(cc1O)C(Cc1ccccc1)N(C(=S)NCCc1ccc(Cl)cc1)CC2` (centres undefined) is higher in Remaining contraction: 58% for the first, 79% for the second.

Compared with `Oc1ccc2c(c1O)CCN(C(=S)NCCc1ccc(Cl)cc1)C2`, `Oc1cccc2c1CN(C(=S)NCCc1ccc(Cl)cc1)C2` is higher in Remaining contraction: 63% for the first, 82% for the second.

First: Oc1ccc2c(c1)CN(C(=S)NCCc1ccc(Cl)cc1)C2
Second: Oc1ccc2c(c1)CN(C(=S)NCCc1ccc(Cl)cc1)CCC2
The Remaining contraction of the first is higher: 41% for the first, 40% for the second.

Compared with `CN(Cc1ccc(O)c(O)c1)C(=S)NCCc1ccc(Cl)cc1`, `Oc1cc2c(cc1O)CN(C(=S)NCCc1ccc(Cl)cc1)CCC2` is lower in Remaining contraction: 69% for the first, 55% for the second.

In the case of `Oc1ccc2c(c1)CCCN(C(=S)NCCc1ccc(Cl)cc1)C2`, the Remaining contraction is reported as 53%.
